What was measured:
[1] = system: cardiac tissues of DOX-induced CHF rats; test: Heart histopathology (H&E, Masson) and TUNEL apoptosis detection; assay type: in vivo, rat; conditions: DOX group
Protocol: Cardiac tissues were fixed in 4% paraformaldehyde, embedded in paraffin, and sectioned at 4–5 μm thickness. Hematoxylin and eosin (H&E) staining was performed to assess histopathological changes, while Masson’s trichrome staining was used to evaluate cardiac fibrosis. Apoptosis in cardiac tissues was detected using a TUNEL assay kit (C1088, Beyotime, Shanghai, China).

[2] = system: PAH activity in AML12 cells; assay type: cell-based
Protocol: (§1) Serum biochemical parameters including brain natriuretic peptide (BNP), creatine kinase (CK), lactate dehydrogenase (LDH), alanine aminotransferase (ALT), and aspartate aminotransferase (AST) were measured using commercial ELISA kits (Nanjing Jiancheng Bioengineering Institute, Nanjing, China) according to the manufacturer’s instructions. Superoxide dismutase (SOD), and malondialdehyde (MDA) levels in liver and heart tissues were measured using assay kits from Aifang Biotechnology (Changsha, China). Phenylalanine and tyrosine concentrations in the cell were determined using an ELISA kit from Abmart (Shanghai, China).
(§2) Mouse hepatocellular cell lines (AML12), purchased from the Shanghai Cell Bank of Chinese Academy of Sciences (Shanghai, China), were cultured in Dulbecco’s Modified Eagle Medium (DMEM) supplemented with 10% fetal bovine serum (FBS) and 2 mM L-glutamine and 1% pyruvate and maintained at 37 °C in a […], 5% CO2 incubator. Cells were seeded at a density of 5 × 10^5 cells/well in 6-well plates. […] Cells’ survival rate was detected by Cell Counting Kit-8 (CCK8) Reagents (Thermo Scientific, Singapore).

DOX-induced CHF rats = test: Serum biochemical parameters (BNP, CK, LDH, ALT, AST) by ELISA kits; assay type: in vivo, rat; conditions: DOX group, experiment I
Protocol: as §1, with “manufacturer's” for “manufacturer’s”, “Aifang” left out

phenylalanine metabolism = test: Phenylalanine and tyrosine levels in rat serum, liver and heart tissues (LC/MS); assay type: in vivo; conditions: DOX-induced CHF rats, day 39
Protocol: Phenylalanine and tyrosine in the different rat bio-samples were analyzed by LC/MS using an Agilent 1290 Ultra high-performance liquid chromatography (UHPLC) and an Agilent 6460 triple-quadrupole tandem mass spectrometer (QQQ-MS) (Agilent Inc, USA). Data were acquired by using an Agilent Zorbax SB-C18 column (3.0 × 150 mm, 5 μm) as described previously.

[3] = system: phenylalanine hydroxylase (PAH); test: PAH expression in liver and heart (western blotting, immunofluorescence); assay type: in vivo, rat
Protocol: Immunofluorescence staining was performed on tissue sections to detect phenylalanine hydroxylase (PAH), prostaglandin-endoperoxide synthase 2 (PTGS2), and reactive oxygen species (ROS). Primary antibodies against PAH and PTGS2 were used, while ROS was detected using the DCFH-DA probe. Nuclei were counterstained with DAPI. Images were captured using a fluorescence microscope.
Protein was extracted from liver or heart tissue samples (30 mg) using lysis buffer. Total protein concentration was determined using a BCA protein assay kit (Thermo Fisher Scientific, USA). Equal amounts of protein from each sample were separated on 10–12% SDS-PAGE gels and transferred to PVDF membranes. Membranes were blocked with quick blocking buffer for 30 min, then incubated with anti-PAH primary antibody (1:1000 dilution) overnight at 4 °C. After washing, membranes were incubated with a secondary antibody for 1 h at 37 °C. Protein bands were visualized using an Odyssey infrared imaging system (JS-1070, Shanghai Peiqing Science & Technology Co., Ltd, China). Band intensities were quantified using ImageJ software.

gut microbiota = test: 16S rRNA sequencing of gut microbiota; assay type: in vivo, rat; conditions: DOX group vs CON group
Protocol: 16S rRNA sequencing and bioinformatics analysis were performed by OEbiotech Co. Ltd. (Shanghai, China). Total genomic DNA was extracted from cecal contents. The V3–V4 hypervariable region of the 16S rRNA gene was amplified using primers 343F and 798R. Clean reads were processed to remove primer sequences and clustered into operational taxonomic units (OTUs) at 97% similarity using Vsearch software. OTUs were annotated by comparison against the […]. Alpha diversity was assessed using the Simpson index. Beta diversity was evaluated using Bray–Curtis distances and visualized by principal coordinates analysis (PCoA). Differential abundance analysis of gut microbiota associated with DOX-induced CHF was performed using linear discriminant analysis effect size (LEfSe) and random forest algorithms.

[4] = system: urinary metabolites of DOX-induced CHF rats; test: Urine metabolomics (UHPLC-Q-TOF/MS); assay type: in vivo, rat
Protocol: Urine samples (200 μL) were mixed with 200 μL of protein precipitant (methanol: acetonitrile, 1:1) and vortexed for 30 s at 4 °C. Samples were sonicated for 10 min in an ice bath, then incubated at – 20 °C for 1 h. After centrifugation at 13,000 rpm for 15 min at 4 °C, 200 μL of supernatant was transferred to sample vials for analysis. A pooled quality control (QC) sample was prepared by combining 10 μL of supernatant from each sample. Sample analysis was performed using a Waters H-Class UPLC system coupled to a Triple TOF 6600 mass spectrometer (AB SCIEX, USA). Chromatographic separation was achieved on an ACQUITY UPLC HSS T3 column (2.1 × 100 mm, 1.7 μm; Waters) using 0.1% formic acid in water (mobile phase A) and acetonitrile (mobile phase B). […] Mass spectrometry was performed in both positive and negative ionization modes. Key parameters included: ion spray voltage, 5500/− 4500 V; m/z range, 60–1000; gas 1 and 2, 60 psi; curtain gas, 35 psi; accumulation time, 1.2 s; source temperature, 550 °C; declustering potential, 60 V. Information-dependent acquisition (IDA) was used with the following settings: m/z range, 50–1000; accumulation time, 0.05 s; collision energy, 40 ± 20 V. Data processing was performed using XC-MS plus software for peak alignment, extraction, and normalization. Metabolite identification was carried out using the MetDNA database. Multivariate statistical analysis, including principal component analysis (PCA) and orthogonal partial least squares discriminant analysis (OPLS-DA), was conducted using MetaboAnalyst 5.0. Differential metabolites were identified based on variable importance in projection (VIP) scores > 1.0 and P < 0.05. Fold change (FC) values were used to determine up- or down-regulation. Metabolic pathway analysis was performed using MetaboAnalyst 5.0, with significance set at P < 0.05.

AML12 cells = test: AML12 cell viability (CCK8); assay type: cell-based
Protocol: as §2

[5] = DOX vs CON group, experiment I, p < 0.001
[6] = experiment II, DOX vs CON, co-treatments vs DOX

With COc1cccc2c1C(=O)c1c(O)c3c(c(O)c1C2=O)C[C@@](O)(C(=O)CO)C[C@@H]3O[C@H]1C[C@H](N)[C@H](O)[C@H](C)O1 [DOX, Doxorubicin] the “H&E and Masson's trichrome staining of cardiac tissue” value [1] was “inflammatory infiltration and increased collagen deposition”, the “phenylalanine levels in AML12 cells” value [2] was “significant increases” and the “phenylalanine metabolism (Phe level, Phe/Tyr ratio)” value ([2]; AML12 cells, DOX vs CON, neomangiferin vs DOX, dose-dependent) was “significantly suppressed”. For the same compound, the “serum ALT and AST levels” value (DOX-induced CHF rats) was “increased”, the “phenylalanine levels in hepatic and cardiac tissues and plasma” value (phenylalanine metabolism) was “significant elevation” and the “ectopic heart PAH expression” value [3, 5] was “significantly increased”. The “liver PAH expression” value [3, 5] was “significantly decreased”, the “PAH expression in heart tissue” value [3, 6] was “significantly raising” and the “PAH expression in liver tissue” value [3, 6] was “substantially lowered”. For the same compound, the Muribaculaceae abundance (gut microbiota) was “decreased”, the “relative abundance of Proteobacteria” value (gut microbiota; p < 0.01) was “significantly increased” and the “urinary levels of 4-(2-aminophenyl)-2,4-dioxobutanoate, hippurate, phenylacetylglycine, 5-methoxyindoleacetate, phenylpyruvate, and phenylalanine” value ([4]; DOX group vs CON group) was “significantly increased”. The “urinary levels of indole-3-acetaldehyde, urea, anthranilate, indoleacetic acid, tryptamine, N-acetyl-L-glutamate, tyrosine, and glutamate” value ([4]; DOX group vs CON group) was “significantly decreased”, the urinary phenylalanine level ([4]; day 10 after DOX administration, P < 0.001) was “sharp increase” and the cell viability (AML12 cells) was “significant reduction”. For the same compound, the IC50 (AML12 cells; Mus musculus, AML12, read-out: DOX concentration that caused 50% cell death (IC50)) was 1000 nM.

Source: paper PMC12794274, “Therapeutic potential of Sheng-Xian-Tang in doxorubicin-induced chronic heart failure by regulation of phenylalanine metabolism disruption” (Chinese Medicine, 2026)
